# Results taken from US20260250316A1, “CRYSTALLINE FORMS OF A MACROCYCLIC PEPTIDE ANTIBIOTIC” (Hoffmann-La Roche Inc., priority 2022, published 2026).
# Tests used:
# physchem = conditions: water, approximately 1 g equilibrated in 8.5 mL of water at 20° C. for 2 days, centrifuged, uPLC
# Experimental: Approximately 1 g of substance was equilibrated in 8.5 mL of water at 20° C. for 2 days. 1 mL of suspension was centrifuged. The filtrate was analyzed by uPLC.
smiles,measurement,setting,value
"CN1C(=O)[C@H](CCCCN)NC(=O)[C@H](CCCN)NCc2cccnc2Sc2cccc(-c3ccc(C(=O)O)cc3)c2CNC(=O)[C@@H]1Cc1c[nH]c2ccccc12.Cl [Amorphous HCl salt, 4-[(11S,14S,17S)-14-(4-Aminobutyl)-11-(3-aminopropyl)-17-(1H-indol-3-ylmethyl)-16-methyl-12,15,18-trioxo-2-thia-4,10,13,16,19-pentazatricyclo[19.4.0.03,8]pentacosa-1(25),3(8),4,6,21,23-hexaen-22-yl]benzoic acid, mono hydrochloric acid salt]",Solubility,"approximately 1 g equilibrated in 8.5 mL of water at 20° C. for 2 days, centrifuged, uPLC",177.6 mg/mL
CN1C(=O)[C@H](CCCCN)NC(=O)[C@H](CCCN)NCc2cccnc2Sc2cccc(-c3ccc(C(=O)O)cc3)c2CNC(=O)[C@@H]1Cc1c[nH]c2ccccc12.Cl [Form A family HCl salt],solubility at 2 days,physchem,124 mg/mL
CN1C(=O)[C@H](CCCCN)NC(=O)[C@H](CCCN)NCc2cccnc2Sc2cccc(-c3ccc(C(=O)O)cc3)c2CNC(=O)[C@@H]1Cc1c[nH]c2ccccc12 [Form A family free zwitterion],solubility at 2 days,physchem,< 1 mg/mL
"CN1C(=O)[C@H](CCCCN)NC(=O)[C@H](CCCN)NCc2cccnc2Sc2cccc(-c3ccc(C(=O)O)cc3)c2CNC(=O)[C@@H]1Cc1c[nH]c2ccccc12.Cl [HCl salt, 4-[(11S,14S,17S)-14-(4-Aminobutyl)-11-(3-aminopropyl)-17-(1H-indol-3-ylmethyl)-16-methyl-12,15,18-trioxo-2-thia-4,10,13,16,19-pentazatricyclo[19.4.0.03,8]pentacosa-1(25),3(8),4,6,21,23-hexaen-22-yl]benzoic acid]",Solubility compared to the free base (in words),especially in aqueous media,dramatically increased solubility compared to the free base
"CN1C(=O)[C@H](CCCCN)NC(=O)[C@H](CCCN)NCc2cccnc2Sc2cccc(-c3ccc(C(=O)O)cc3)c2CNC(=O)[C@@H]1Cc1c[nH]c2ccccc12 [free base, 4-[(11S,14S,17S)-14-(4-Aminobutyl)-11-(3-aminopropyl)-17-(1H-indol-3-ylmethyl)-16-methyl-12,15,18-trioxo-2-thia-4,10,13,16,19-pentazatricyclo[19.4.0.03,8]pentacosa-1(25),3(8),4,6,21,23-hexaen-22-yl]benzoic acid]",Solubility in water (in words),water,hardly soluble in water
